Measurements: article PMC8066730, “Alteration of Anticancer and Protein-Binding Properties of Gold(I) Alkynyl by Phenolic Schiff Bases Moieties” (Pharmaceutics, 2021)

Legend:
[1] = tested on: OVCAR-3 (ovarian carcinoma cancer cell line); assay: SRB cytotoxicity assay, OVCAR-3; type: cell-based; settings: for IC50: 3 days incubation, SRB, DMSO solutions
Experimental: (§1) The cells were obtained by the Egyptian Holding Company for Biological Products and Vaccines (VACSERA) and then maintained in the tissue culture unit. Cells were grown in RPMI-1640 medium, supplemented with 10% heat inactivated FBS, 50 units/mL of penicillin, and […] of streptomycin, and maintained in a humidified atmosphere with 5% carbon dioxide. The cells were kept as monolayer cultures by serial sub-culturing, using cell culture reagents from Lonza (Basel, Switzerland). The antitumor activities of the complexes were assessed against OVCAR-3 (ovarian carcinoma cancer) and HOP-62 (non-small-cell lung cancer) cell lines.
(§2) The sulforhodamine B (SRB) assay method was applied to determine the cytotoxicity, as described in the literature. Exponentially growing cells were collected using 0.25% Trypsin-EDTA and seeded in 96-well plates at 1000–2000 cells/well in RBMI-1640 supplemented medium. The cells were kept in the medium for 24 h and then incubated for 3 days with various concentrations of the gold compounds. Following 3 days of treatment, the cells were fixed with 10% Cl3CCOOH for 60 min at 4 °C. Wells were stained for 10 min at room temperature with 0.4% SRBC dissolved in 1% CH3COOH. The plates were air dried for 24 h, and the dye was dissolved in Tris-HCl for 5 min with shaking at 1600 rpm. The optical density of each well was evaluated spectrophotometrically at 564 nm with an ELISA microplate reader (ChroMate-4300, Orlando, FL, USA). The half […] inhibitory concentration (IC50) values were calculated from a Boltzmann sigmoidal concentration response curve using nonlinear regression fitting models (Graph Pad, Prism Version 9, San Diego, CA, USA).

[2] = target: human serum albumin (HSA) (Homo sapiens, UniProt P02768); assay: HSA fluorescence quenching binding study; parameters: Kq (quenching rate constant): unit not given here; settings: for n (number of binding sites) / Ksv (Stern–Volmer quenching constant) / Kq (quenching rate constant) / ∆G^0 (Gibbs free energy of binding to HSA): 295 K; for Ksv (Stern–Volmer quenching constant): HSA 32 µM, Tris-HCl/NaCl buffer pH 7.4, ca. 20% DMSO; for Kq (quenching rate constant): Ksv = Kq × τ0, τ0 = 7 ns; for ∆G^0 (Gibbs free energy of binding to HSA): calculated from Kb; for fold enhancement in HSA binding affinity on replacing triphenylphosphine with tricyclohexylphosphine: proceeding from 1 to 2 and 3 to 5; for fold increase in HSA binding affinity on introducing the o-phenolic moiety: proceeding from 1 to 3 and 2 to 5
Experimental: Human serum albumin (HSA) solution (32 µM) was prepared in Tris-HCl/NaCl aqueous buffer (pH = 7.4). The solution was titrated with different concentrations of complexes 1–5 in DMSO (the amount of DMSO was maintained at ca. 20% v/v). The changes in the emission intensity of the protein were followed at around 330 nm upon excitation at 275 nm after incubating the complexes for 4 min at 295 K. The Stern–Volmer quenching constants (KSV) were obtained from Equation (1), where Io and I are the emission intensities of the protein in the absence and the presence of the complexes, respectively. The […]; the KSV value was defined as the slope of the line. The Stern–Volmer constant is related to the quenching constant by Equation (2), where Kq is the quenching rate constant, and τ0 is the average lifetime of the fluorescence for free HSA (τ0 = 7 ns). The binding constant (Kb, M^−1) and the number of binding sites (n) were calculated by plotting log[Io − I/I] against Log [Au complex], where the slope equals n and the intercept is equivalent to Log Kb according to Equation (3). Gibbs free energy (∆G^0) of the binding to HSA protein can be calculated by employing Equation (4), using the binding constant (Kb, M^−1). I0/I = 1 + Ksv [Au complex](1) Ksv = Kq × τ0(2) Log(I0 − I)/I = Log Kb + n Log [Au complex](3) ∆G^0 = −R × T × Ln × Kb(4)

[3] = tested on: HOP-62 (non-small-cell lung cancer cell line); assay: SRB cytotoxicity assay, HOP-62; type: cell-based, human; settings: 3 days incubation, DMSO solutions
Experimental: as §1, §2

human serum albumin (HSA), sequence (P02768 25-609): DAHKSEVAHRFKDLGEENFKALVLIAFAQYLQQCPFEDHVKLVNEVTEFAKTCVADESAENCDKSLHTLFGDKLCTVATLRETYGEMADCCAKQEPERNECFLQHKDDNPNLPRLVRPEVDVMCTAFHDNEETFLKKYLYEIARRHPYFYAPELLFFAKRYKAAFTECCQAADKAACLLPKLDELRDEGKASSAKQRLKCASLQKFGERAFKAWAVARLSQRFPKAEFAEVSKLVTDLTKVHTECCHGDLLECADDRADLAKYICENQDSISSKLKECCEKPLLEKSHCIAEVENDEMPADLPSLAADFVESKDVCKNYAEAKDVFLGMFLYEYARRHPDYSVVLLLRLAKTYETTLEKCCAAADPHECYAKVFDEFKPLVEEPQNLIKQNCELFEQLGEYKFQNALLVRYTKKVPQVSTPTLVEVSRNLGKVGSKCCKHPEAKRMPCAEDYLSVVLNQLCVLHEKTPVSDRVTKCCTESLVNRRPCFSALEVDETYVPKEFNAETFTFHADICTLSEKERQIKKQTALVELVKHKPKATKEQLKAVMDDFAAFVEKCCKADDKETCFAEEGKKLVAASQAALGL

n (number of binding sites) [2] | Ksv (Stern–Volmer quenching constant) [2] | Kq (quenching rate constant) [2] | ∆G^0 (Gibbs free energy of binding to HSA) [2] | fold enhancement in HSA binding affinity on replacing triphenylphosphine with tricyclohexylphosphine [2] | fold increase in HSA binding affinity on introducing the o-phenolic moiety [2] | Compound | IC50 [1] | cytotoxic activity against OVCAR-3 in words ([1]; compared with cisplatin) | HSA binding constant relative to complex 3 (2-hydroxy) ([2]; ratio of Kb, complex 4 vs complex 3) | IC50 [3]
– | – | – | – | – | – | N.N.[Cl][Pt][Cl] [cisplatin, reference compound] | 5.89 ± 0.12 µM | – | – | 3.91 ± 0.2 µM
0.82 | 4.7 ×10^4 | 6.71 ×10^12 | -5.07 kcal/mol | – | – | Au(C≡C-C6H4-4-CHO)(PPh3) [Compound 1] | 13.7 ± 0.53 µM | – | – | 12.5 ± 0.43 µM
1.37 | 37.1 ×10^4 | 52.96 ×10^12 | -10.27 kcal/mol | 170 fold | 240 fold | HO–2–C6H4–N=C–4-C6H4-C≡C–Au-PCy3 [Compound 5] | 9.11 ± 0.12 µM | – | – | 7.55 ± 0.43 µM
0.96 | 38.9 ×10^4 | 55.57 ×10^12 | -7.239 kcal/mol | – | 40 fold | HO–2–C6H4–N=C–4-C6H4-C≡C–Au-PPh3 [Compound 3] | 9.4 ± 0.17 µM | – | – | 7.25 ± 0.21 µM
1.16 | 2.8 ×10^4 | 4.00 ×10^12 | -7.15 kcal/mol | 30 fold | – | OHC-4-C6H4-C≡C-Au-PCy3 [Compound 2] | 15.9 ± 0.53 µM | – | – | 14.82 ± 0.13 µM

Compound | n (number of binding sites) [2] | Ksv (Stern–Volmer quenching constant) [2] | Kq (quenching rate constant) [2] | ∆G^0 (Gibbs free energy of binding to HSA) [2] | fold enhancement in HSA binding affinity on replacing triphenylphosphine with tricyclohexylphosphine [2] | fold increase in HSA binding affinity on introducing the o-phenolic moiety [2] | IC50 [1] | cytotoxic activity against OVCAR-3 in words ([1]; compared with cisplatin) | HSA binding constant relative to complex 3 (2-hydroxy) ([2]; ratio of Kb, complex 4 vs complex 3) | IC50 [3]
Oc1ccc(N=Cc2ccc(C#[C][Au][PH](c3ccccc3)(c3ccccc3)c3ccccc3)cc2)cc1 [Compound 4, HO–4–C6H4–N=C–4-C6H4-C≡C–Au-PPh3] | 1.61 | 71.5 ×10^4 | 102.21 ×10^12 | -12.4 kcal/mol | – | – | 5.27 ± 0.11 µM | comparable to that of cisplatin | 6400 times | 8.16 ± 0.43 µM
